Patent US8987314B2, “Amide, urea or sulfone amide linked benzothiazole inhibitors of endothelial lipase” (Bristol-Myers Squibb Company, priority 2012, dated 2015)

Key:
[1] = target: Endothelial lipase (EL) (Homo sapiens (Human), UniProt Q9Y5X9); test: EL assay: endothelial lipase activity with fluorescent substrate A10070 in DMPG vesicles; assay type: biochemical
Procedure: (§1) Endothelial lipase (EL) and hepatic lipase (HL) activities were measured using a fluorescent substrate, A10070, (Invitrogen, CA) doped into an artificial vesicle containing DMPG (Avanti Polar Lipids) as the excipient. Vesicles were prepared by combining 571 μL of 29 mM DMPG in a 1:1 mixture of MeOH and CHCl3 with 2000 μL of 1 mM A10070 in a 1:1 mixture of MeOH and CHCl3. The mixture was dried under nitrogen in multiple vials then resuspended in 20 mL total volume of 50 mM HEPES pH 8.0 buffer containing 50 mM NaCl and 0.2 mM EDTA. The sample was allowed to sit at room temperature for 15 min and then was sonicated 3×4 mins on ice with a Branson Sonicator using duty cycle 1. This preparation provides vesicles with a mole fraction of 0.11 for the FRET substrate.
(§2) The enzymatic assay was measured using 384-well white Optiplates. Each well contained 20 μL of assay buffer (50 mM HEPES pH 8.0, 50 mM NaCl and 1 mM CaCl2) and 0.25 μL of a DMSO solution containing a compound of interest. EL or HL (10 μL) was added and allowed to incubate with the compound for 30 min at 37° C. The source of EL was conditioned media obtained from HT-1080 cells that were transformed using RAGE technology (Athersys) to overexpress endogenous EL, and HL was partially purified from conditioned media obtained from COS cells overexpressing HL. The reaction was started by the addition of 10 μL of a 1:10 dilution of vesicles. The final total reaction volume was […]. The reaction rates were measured on a Gemini plate reader with an excitation wavelength of 490 nm and an emission wavelength of 530 nm. Readings were taken over a period of 60 minutes, and the slope between 300 and 900 secs of the readout was used to calculate the rate of the reaction.

[2] = target: hepatic lipase (HL) (Homo sapiens (Human), UniProt P11150); test: HL assay: hepatic lipase activity with fluorescent substrate A10070 in DMPG vesicles; assay type: biochemical
Procedure: as §1, §2

Chain of hepatic lipase (HL) (P11150 23-499, species assumed): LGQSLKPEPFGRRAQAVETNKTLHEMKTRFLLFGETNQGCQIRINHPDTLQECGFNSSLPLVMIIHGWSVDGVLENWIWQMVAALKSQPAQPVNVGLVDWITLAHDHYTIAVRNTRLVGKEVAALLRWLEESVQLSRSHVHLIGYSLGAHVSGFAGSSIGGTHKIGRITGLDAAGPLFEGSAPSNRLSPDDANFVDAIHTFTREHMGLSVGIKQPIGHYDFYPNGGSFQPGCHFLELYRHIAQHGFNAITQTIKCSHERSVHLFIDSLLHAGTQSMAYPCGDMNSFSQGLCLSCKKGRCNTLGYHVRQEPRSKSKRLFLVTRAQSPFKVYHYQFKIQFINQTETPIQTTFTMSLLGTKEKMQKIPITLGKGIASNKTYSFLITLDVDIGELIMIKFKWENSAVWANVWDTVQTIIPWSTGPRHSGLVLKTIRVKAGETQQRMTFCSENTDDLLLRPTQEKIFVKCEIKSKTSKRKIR
Chain of Endothelial lipase (EL) (Q9Y5X9 21-500): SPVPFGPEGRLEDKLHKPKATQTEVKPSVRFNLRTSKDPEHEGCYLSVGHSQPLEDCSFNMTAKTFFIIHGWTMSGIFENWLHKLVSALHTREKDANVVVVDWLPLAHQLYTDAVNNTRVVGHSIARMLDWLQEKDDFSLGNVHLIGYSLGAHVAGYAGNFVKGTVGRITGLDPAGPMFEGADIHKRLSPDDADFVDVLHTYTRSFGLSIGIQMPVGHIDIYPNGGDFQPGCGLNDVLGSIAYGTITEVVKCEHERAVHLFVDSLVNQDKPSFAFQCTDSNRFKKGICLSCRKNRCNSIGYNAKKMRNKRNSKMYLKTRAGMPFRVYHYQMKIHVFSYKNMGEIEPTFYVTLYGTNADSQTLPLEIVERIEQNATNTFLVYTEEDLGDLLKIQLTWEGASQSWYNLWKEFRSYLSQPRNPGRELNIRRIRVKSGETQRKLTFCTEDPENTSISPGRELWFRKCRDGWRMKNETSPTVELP

| Compound | IC50 [1] [nM] | IC50 [2] [nM] |
| --- | --- | --- |
| COCCOc1ccc(-c2ccc3nc(C(C(=O)NCCS(N)(=O)=O)S(C)(=O)=O)sc3c2)cc1 (stereo not drawn) [Example B48, 2-(6-(4-(2-methoxyethoxy)phenyl)-1,3-benzothiazol-2-yl)-2-(methylsulfonyl)-N-(2-sulfamoylethyl)acetamide] | < 10 | 11 |
| COCCNC(=O)c1cccc(-c2ccc3nc(C(C(=O)NCCS(N)(=O)=O)S(C)(=O)=O)sc3c2)c1 (stereo not drawn) [Example B49, N-(2-methoxyethyl)-3-(2-(1-(methylsulfonyl)-2-oxo-2-((2-sulfamoylethyl)a-mino)ethyl)-1,3-benzothiazol-6-yl)ben-zamide] | < 10 | 152 |
| CS(=O)(=O)C(C(=O)NCCS(N)(=O)=O)c1nc2ccc(-c3ccc(C#N)cc3)cc2s1 (stereo not drawn) [Example B50, 2-(6-(4-cyanophenyl)-1,3-benzothiazol-2-yl)-2-(methylsulfonyl)-N-(2-Sulfamoylethyl)acetamide] | < 10 | 14 |
| CS(=O)(=O)C(C(=O)NCCS(N)(=O)=O)c1nc2ccc(-c3cccc(C#N)c3)cc2s1 (stereo not drawn) [Example B51, 2-(6-(3-cyanophenyl)-1,3-benzothiazol-2-yl)-2-(methylsulfonyl)-N-(2-sulfamoylethyl)acetamide] | < 10 | < 10 |
| NS(=O)(=O)CCNC(=O)C(c1nc2ccc(-c3ccc(OCCN4CCCCC4)cc3)cc2s1)S(=O)(=O)CCC(F)(F)F (stereo not drawn) [Example B54, 2-(6-(4-(2-(1-piperidinyl)ethoxy)phenyl)-1,3-benzothiazol-2-yl)-N-(2-sulfamoylethyl)-2-((3,3.3-trifluoropropyl)sul-fonyl)acetamide] | < 10 | 23 |
| CS(=O)(=O)C(C(=O)NCCS(N)(=O)=O)c1nc2ccc(-c3cccc(CCO)c3)cc2s1 (stereo not drawn) [Example B58, 2-(6-(3-(2-hydroxyethyl)phenyl)-1,3-benzothiazol-2-yl)-2-(methylsulfonyl)-N-(2-sulfamoylethyl)acetamide] | < 10 | 36 |
| NS(=O)(=O)CCNC(=O)C(c1nc2ccc(-c3ccc(C(=O)NCCO)cc3)cc2s1)S(=O)(=O)CC1CC1 (stereo not drawn) [Example B59, 4-(2-(1-((cyclopropylmeth-yl)sulfonyl)-2-oxo-2-((2-sulfamoylethyl)amino)eth-yl)-1,3-benzothiazol-6-yl)-N-(2-hydroxyethyl)ben-zamide] | < 10 | 102 |

Results, then the compound that gave them:

| IC50 [1] [nM] | IC50 [2] [nM] | Compound |
| --- | --- | --- |
| < 10 | 66 | CC(=O)Nc1cccc(-c2ccc3nc(C(C(=O)NCCS(N)(=O)=O)S(C)(=O)=O)sc3c2)c1 (stereo not drawn) [Example B52, 2-(6-(3-acetamidophenyl)-1,3-benzothiazol-2-yl)-2-(methylsulfonyl)-N-(2-sulfamoylethyl)acetamide] |
| < 10 | 152 | NS(=O)(=O)CCNC(=O)C(c1nc2ccc(-c3ccc(CCO)cc3)cc2s1)S(=O)(=O)CCC(F)(F)F (stereo not drawn) [Example B53, 2-(6-(4-(2-hydroxyethyl)phen-yl)-1,3-benzothiazol-2-yl)-N-(2-sulfamoylethyl)-2-((3,3,3-trifluoropropyl)sul-fonyl)acetamide] |
| < 10 | 55 | CC(=O)Nc1ccc(-c2ccc3nc(C(C(=O)NCCS(N)(=O)=O)S(=O)(=O)CCC(F)(F)F)sc3c2)cc1 (stereo not drawn) [Example B55, 2-(6-(4-acetamidophenyl)-1,3-benzothiazol-2-yl)-N-(2-sulfamoylethyl)-2-((3,3,3-trifluoropropyl)sul-fonyl)acetamide] |
| < 10 | 122 | CS(=O)(=O)C(C(=O)NCCS(N)(=O)=O)c1nc2ccc(-c3ccc(CO)cc3)cc2s1 (stereo not drawn) [Example B56, 2-(6-(4-(hydroxymethyl)phen-yl)-1,3-benzothiazol-2-yl)-2-(methylsulfonyl)-N-(2-sulfamoylethyl)a-cetamide] |
| < 10 | 144 | CS(=O)(=O)C(C(=O)NCCS(N)(=O)=O)c1nc2ccc(-c3ccc(S(=O)(=O)NCCO)cc3)cc2s1 (stereo not drawn) [Example B57, 2-(6-(4-((2-hydroxyeth-yl)sulfamoyl)phenyl)-1,3-benzothiazol-2-yl)-2-(methylsulfonyl)-N-(2-sulfamoylethyl)acetamide] |
